The source of these data is patent EP0459829A1, “Pharmacologically active CNS compounds” (THE WELLCOME FOUNDATION LIMITED, priority 1990, dated 1991).

SMILES strings stand for the structures.

Test [1] relates to veratrine-evoked release of glutamate from rat brain slices. Nature of the test: Inhibition of veratrine-evoked release of glutamate from rat brain slices. Format: cell-based. The settings on record: read-out: IC50(µM) Glutamate Release (P95 limits). The method, then: (§1) A compound of Formula (1) was tested for its effect on veratrine-evoked release of glutamate from rat brain slices according to the protocol described in Epilepsia 27(5): 490-497, 1986. The protocol for testing for inhibition of DHFR activity was a modification of that set out in Biochemical Pharmacology Vol.20 pp 561-574, 1971.
(§2) The results are given in Table 1, the IC50 being the concentration of compound to cause 50% inhibition of (a) veratrine-evoked release of glutamate and (b) of DHFR enzyme activity.

A further test has as its target T1, Rat Liver DHFR (Rattus norvegicus, UniProt Q920D2).
T1 construct: from tissue; host or cells: rat liver
T1 sequence (Q920D2 1-187): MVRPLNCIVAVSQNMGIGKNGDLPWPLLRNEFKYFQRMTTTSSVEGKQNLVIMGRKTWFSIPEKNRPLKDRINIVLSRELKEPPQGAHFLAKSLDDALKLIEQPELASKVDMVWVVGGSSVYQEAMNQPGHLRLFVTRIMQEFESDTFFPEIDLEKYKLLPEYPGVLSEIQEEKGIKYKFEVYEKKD
Nature of the test: Inhibition of DHFR enzyme activity. The test is classed as biochemical. The settings on record: read-out: IC50(µM) Rat Liver DHFR (P95 limits). The method, then: as §1, §2

For orientation: IC50 means the concentration needed to halve the response being measured. For the compound `Nc1nnc(-c2cc(Cl)c(N)c(Cl)c2Cl)c(N)n1` [Example 1, 3,5-Diamino-6-(4-amino-2,3,5-trichlorophenyl)-1,2,4-triazine], the IC50 was under 10 µM in test [1] and over 100 µM at Rat Liver DHFR.
